Test results taken from patent US9029387B2, “Benzonaphthyridinamines as autotaxin inhibitors” (Merck Patent GmbH, priority 2010, dated 2015).

The compounds below were run against T1, recombinant autotaxin (Homo sapiens, UniProt Q13822) (assay: Autotaxin test (enzyme test), Amplex Red fluorescence). Settings: IC50 ranges; LPC 75 μM; read-out: Autotaxin inhibition IC50.
T1 construct: made in house; host or cells: Hi5 insect cells (baculovirus)
Type: biochemical
Procedure: The autotaxin activity is measured indirectly using Amplex Red reagent. Amplex Red is measured here as fluorogenic indicator for the H2O2 formed. In detail, autotaxin converts the substrate lysophosphatidylcholine (LPC) into phosphocholine and lysophosphatidylic acid (LPA). After this reaction, the phosphocholine is reacted with alkaline phosphatase to give inorganic phosphate and choline. In the next step, choline is oxidised by choline oxidase to give betaine, with formation of H2O2. H2O2 reacts with Amplex Red reagent in the presence of peroxidase (horseradish peroxidase) in a 1:1 stoichiometry and forms the highly fluorescent resorufin. The fluorescence is measured in a reaction-dependent kinetic mode in order that fluorescent signals from possible other fluorescent substances which are not involved in the reaction can be corrected out.
1.5 μl of a standard solution or of the test substances (compounds of the invention) in individual concentrations dissolved in 20 mM Hepes pH 7.2 with a maximum of 7.7% of DMSO are pre-incubated together with 10 μl (16 ng) of highly purified recombinant autotaxin in a black microtitre plate provided with 384 wells at 22° C. for 30 min. The reaction is then initiated by addition of 5 μl of L-α-lysophosphatidylcholine (LPC), where the final concentration of LPC is 75 μM. The mixture is incubated at 37° C. for 90 min. After the incubation, Amplex Red reagent, peroxidase (horseradish peroxidase) and choline oxidase is added, and the fluorescence is immediately measured at 612 nm with excitation of 485 nm in a “Tecan Ultra multimode” reader. The activity of autotaxin is calculated indirectly via detection of the H2O2 formed.
• Microtitre plate: PS microplate, 384 wells, small volume, black Corning, Cat#3677 • Protein: recombinant autotaxin (Baculovirale Hi5 Expression) • Substrate: L-a-lysophosphatidylcholine (chicken egg)); Avanti Polar Lipids #830071 P • Standard: C14 LPA, Avanti Polar Lipids, Cat#857120P • Detection reagent: Amplex Red reagent; Invitrogen #A12222; dissolved in 1.923 ml of DMSO peroxidase type VI-A (horseradish) from Sigma #P6782; dissolved in 7.45 ml of test buffer, choline oxidase; Sigma #C5896; dissolved in 2.47 ml of test buffer • Detection reagent mix: 1:100 dilution of Amplex Red Reagenzt in test buffer • Test buffer: 200 mM Tris HCl, Merck, Cat #1.08219, pH 7.9, 0.1% BSA, lipid-free, Roche Cat#775835 Pharmacological Data Autotaxin Inhibition

Row | SMILES | IC50 [µM]
1 | COc1ccc(Cl)cc1NC(=O)CN1CCc2nc3ccccc3c(NC3CCN(C)CC3)c2C1 [Compound 1, N-(5-Chloro-2-methoxyphenyl)-2-[10-(1-methylpiperidin-4-ylamino)-3,4-dihydro-1H-benzo[b]-1,6-naphthyridin-2-yl]acetamide] | 0.1 to 1
2 | COc1ccc(Cl)cc1NC(=O)CN1CCc2nc3ccccc3c(N)c2C1 [Compound 2, 2-(10-Amino-3,4-dihydro-1H-benzo[b]-1,6-naphthyridin-2-yl)-N-(5-chloro-2-methoxyphenyl)acetamide] | > 1
3 | COc1ccc(Cl)cc1NC(=O)CN1CCc2nc3ccccc3c(NCCO)c2C1 [Compound 4, N-(5-Chloro-2-methoxyphenyl)-2-[10-(2-hydroxy-ethylamino)-3,4-dihydro-1H-benzo[b]-1,6-naphthyridin-2-yl]acetamide] | 0.1 to 1
4 | COc1ccc(Cl)cc1NC(=O)CN1CCc2nc3ccccc3c(NCCN(C)C)c2C1 [Compound 5, N-(5-Chloro-2-methoxyphenyl)-2-[10-(2-dimethylamino-ethylamino)-3,4-dihydro-1H-benzo[b]-1,6-naphthyridin-2-yl]acetamide] | 0.1 to 1
5 | COc1ccc(Cl)cc1NC(=O)COC(=O)N1CCc2nc3ccccc3c(NCCO)c2C1 [Compound 7, 10-(2-Hydroxyethylamino)-3,4-dihydro-1H-benzo[b]-1,6-naphthyridine-2-carboxylic acid (5-chloro-2-methoxy-phenylcarbamoyl)methyl ester] | > 1
6 | CNC(=O)CNc1c2c(nc3ccccc13)CCN(CC(=O)Nc1cc(Cl)ccc1OC)C2 [Compound 8, N-(5-Chloro-2-methoxyphenyl)-2-[10-(methyl-carbamoylmethylamino)-3,4-dihydro-1H-benzo[b]-1,6-naphthyridin-2-yl]acetamide] | 0.1 to 1
7 | COc1ccc(Cl)cc1NC(=O)CN1CCc2nc3ccccc3c(NCC(=O)N(C)C)c2C1 [Compound 9, N-(5-Chloro-2-methoxyphenyl)-2-[10-(dimethyl-carbamoylmethylamino)-3,4-dihydro-1H-benzo[b]-1,6-naphthyridin-2-yl]acetamide] | 0.1 to 1
8 | COc1ccc(Cl)cc1NC(=O)CN1CCc2nc3ccccc3c(N3CCN(CCO)CC3)c2C1 [Compound 10, N-(5-Chloro-2-methoxyphenyl)-2-{10-[4-(2-hydroxyethyl)-piperazin-1-yl]-3,4-dihydro-1H-benzo[b]-1,6-naphthyridin-2-yl}acetamide] | 0.1 to 1
9 | COc1ccc(Cl)cc1NC(=O)CN1CCc2nc3ccccc3c(NCc3nc4ccccc4[nH]3)c2C1 [Compound 11, 2-{10-[(1H-Benzimidazol-2-ylmethyl)amino]-3,4-dihydro-1H-benzo[b]-1,6-naphthyridin-2-yl}-N-(5-chloro-2-methoxyphenyl)acetamide] | > 1
10 | COc1ccc(Cl)cc1NC(=O)CN1CCc2nc3ccccc3c(NCC(=O)N3CCCC3)c2C1 [Compound 12, N-(5-Chloro-2-methoxyphenyl)-2-[10-(2-oxo-2-pyrrolidin-1-ylethylamino)-3,4-dihydro-1H-benzo[b]-1,6-naphthyridin-2-yl]acetamide] | 0.1 to 1
11 | COc1ccc(Cl)cc1NC(=O)CN1CCc2nc3ccccc3c(NCC(=O)N3CCCCC3)c2C1 [Compound 13, N-(5-Chloro-2-methoxyphenyl)-2-[10-(2-oxo-2-piperidin-1-ylethylamino)-3,4-dihydro-1H-benzo[b]-1,6-naphthyridin-2-yl]acetamide] | 0.1 to 1
12 | COc1ccc(Cl)cc1NC(=O)CN1CCc2nc3ccccc3c(NCC(=O)N3CCOCC3)c2C1 [Compound 14, N-(5-Chloro-2-methoxyphenyl)-2-[10-(2-morpholin-4-yl-2-oxoethylamino)-3,4-dihydro-1H-benzo[b]-1,6-naphthyridin-2-yl]acetamide] | 0.1 to 1
13 | COc1ccc(Cl)cc1NC(=O)CN1CCc2nc3ccccc3c(NCC(=O)NC3CCCCC3)c2C1 [Compound 15, N-(5-Chloro-2-methoxyphenyl)-2-[10-(cyclohexyl-carbamoylmethylamino)-3,4-dihydro-1H-benzo[b]-1,6-naphthyridin-2-yl]acetamide] | > 1
14 | COc1ccc(Cl)cc1NC(=O)CN1CCc2nc3ccccc3c(NCC(=O)N3CCN(C)CC3)c2C1 [Compound 16, N-(5-Chloro-2-methoxyphenyl)-2-{10-[2-(4-methyl-piperazin-1-yl)-2-oxoethylamino]-3,4-dihydro-1H-benzo-[b]-1,6-naphthyridin-2-yl}acetamide] | 0.1 to 1
15 | COc1ccc(Cl)cc1NC(=O)CN1CCc2nc3ccccc3c(NCC(=O)N3CCN(C(C)C)CC3)c2C1 [Compound 17, N-(5-Chloro-2-methoxyphenyl)-2-{10-[2-(4-isopropyl-piperazin-1-yl)-2-oxoethylamino]-3,4-dihydro-1H-benzo-[b]-1,6-naphthyridin-2-yl}acetamide] | 0.1 to 1
16 | CCN(CC)C(=O)CNc1c2c(nc3ccccc13)CCN(CC(=O)Nc1cc(Cl)ccc1OC)C2 [Compound 18, N-(5-Chloro-2-methoxyphenyl)-2-[10-(diethyl-carbamoylmethylamino)-3,4-dihydro-1H-benzo[b]-1,6-naphthyridin-2-yl]acetamide] | 0.1 to 1
17 | COc1ccc(Cl)cc1NC(=O)CN1CCc2nc3ccccc3c(NCC(=O)N3CCN(Cc4ccccc4)CC3)c2C1 [Compound 19, 2-{10-[2-(4-Benzylpiperazin-1-yl)-2-oxoethylamino]-3,4-dihydro-1H-benzo[b]-1,6-naphthyridin-2-yl}-N-(5-chloro-2-methoxyphenyl)acetamide] | 0.1 to 1
18 | COc1ccc(Cl)cc1NC(=O)CN1CCc2nc3ccccc3c(Nc3ccncc3)c2C1 [Compound 20, N-(5-Chloro-2-methoxyphenyl)-2-[10-(pyridin-4-ylamino)-3,4-dihydro-1H-benzo[b]-1,6-naphthyridin-2-yl]acetamide] | > 1
19 | COc1ccc(Cl)cc1NC(=O)CN1CCc2nc3ccccc3c(Nc3cccnc3)c2C1 [Compound 21, N-(5-Chloro-2-methoxyphenyl)-2-[10-(pyridin-3-ylamino)-3,4-dihydro-1H-benzo[b]-1,6-naphthyridin-2-yl]acetamide] | > 1
20 | COc1ccc(Cl)cc1NC(=O)CN1CCc2nc3ccccc3c(Nc3ccccc3)c2C1 [Compound 22, N-(5-Chloro-2-methoxyphenyl)-2-(10-phenylamino-3,4-dihydro-1H-benzo[b]-1,6-naphthyridin-2-yl)acetamide] | > 1
21 | COc1ccc(Cl)cc1NC(=O)CN1CCc2nc3ccccc3c(Nc3ccccn3)c2C1 [Compound 23, N-(5-Chloro-2-methoxyphenyl)-2-[10-(pyridin-2-ylamino)-3,4-dihydro-1H-benzo[b]-1,6-naphthyridin-2-yl]acetamide] | > 1
22 | COc1ccc(Nc2c3c(nc4ccccc24)CCN(CC(=O)Nc2cc(Cl)ccc2OC)C3)cc1 [Compound 24, N-(5-Chloro-2-methoxyphenyl)-2-[10-(4-methoxy-phenylamino)-3,4-dihydro-1H-benzo[b]-1,6-naphthyridin-2-yl]acetamide] | > 1

Same assay, conditions: at 3E−5M; LPC 75 μM

Row | SMILES | % (ctrl 3E−5M) [%]
23 | Nc1c2c(nc3ccccc13)CCN(CC(=O)Nc1cc(Cl)ccc1Cl)C2 [Compound 3, 2-(10-Amino-3,4-dihydro-1H-benzo[b]-1,6-naphthyridin-2-yl)-N-(2,5-dichlorophenyl)acetamide] | 79
24 | COc1ccc(Cl)cc1NC(=O)COC(=O)N1CCc2nc3ccccc3c(NCCN(C)C)c2C1 [Compound 6, 10-(2-Dimethylaminoethylamino)-3,4-dihydro-1H-benzo[b]-1,6-naphthyridine-2-carboxylic acid (5-chloro-2-methoxyphenylcarbamoyl)methyl ester] | −9
